Assay results published in patent US9943507B2, “Treatment of pancreatic and related cancers with 5-acyl-6,7-dihydrothieno[3,2-c]pyridines” (Memorial Sloan-Kettering Cancer Center, priority 2012, dated 2018).

Key:
[1] = molecular target: T1, Hhat (Homo sapiens, UniProt Q5VTY9); assay: Hhat activity assay (SPA, P100 membranes from HA-Hhat transfected 293FT cells); assay type: biochemical; settings: 12.5 μM compound, 125I-iodo-palmitoylCoA, Shh biotinylated peptide
T1 construct: expressed in transfected cells; host or cells: 293FT cells (P100 membrane fraction)
T1 sequence (Q5VTY9 whole entry): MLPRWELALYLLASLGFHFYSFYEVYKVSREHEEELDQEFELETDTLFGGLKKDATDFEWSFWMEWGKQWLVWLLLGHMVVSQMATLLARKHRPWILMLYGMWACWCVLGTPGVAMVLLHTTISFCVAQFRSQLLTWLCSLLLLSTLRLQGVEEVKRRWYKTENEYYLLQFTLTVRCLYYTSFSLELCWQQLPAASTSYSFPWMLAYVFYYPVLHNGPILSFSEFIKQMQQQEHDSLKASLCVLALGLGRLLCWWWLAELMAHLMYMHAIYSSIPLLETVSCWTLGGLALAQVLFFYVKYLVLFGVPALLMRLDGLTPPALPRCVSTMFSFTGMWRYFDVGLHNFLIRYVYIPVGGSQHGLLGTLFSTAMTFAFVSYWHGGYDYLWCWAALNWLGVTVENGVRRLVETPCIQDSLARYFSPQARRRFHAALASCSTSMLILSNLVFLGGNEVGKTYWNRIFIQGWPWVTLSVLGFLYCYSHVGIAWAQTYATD
Procedure: Hhat activity assay: Five μl of 10 mM MES, pH 6.5 buffer was dispensed within each well of a 384-well white/clear-bottom plate (Greiner Bio-One, Kremsmuenster, Austria) using a Thermo Multi-Drop Combi dispenser. […] Percent inhibition for each experimental point was determined by the formula: [(high control−compound)/(high control−low control)]*100.

[2] = molecular target: T1, Hhat; assay: In vitro Hhat activity assay with purified enzyme and ShhN recombinant protein (IC50); assay type: biochemical; settings: saturating substrate; purified enzyme, 0.7 μM ShhN recombinant protein, 18 μM 125I-iodo-palmitoylCoA
Procedure: Expression and purification of recombinant Shh were carried out as described in Buglino, J. A. and Resh, M. D. “Hhat is a palmitoylacyl transferase with specificity for N-palmitoylation of sonic hedgehog”. J. Biol. Chem. 283, 22076-22088 (2008) and Buglino, J. A. and Resh, M. D. “Identification of conserved regions and residues within Hedgehog acyltransferase critical for palmitoylation of Sonic Hedgehog”. PLoS One 5, e11195 (2010). N-terminally 6×His tagged human Shh 24-197 with an enterokinase cleavage site immediately upstream of residue 24 was amplified using full length Shh as a template. The purified PCR product was ligated in NcoI and BamHI cut PET19b (Novagen). C24S and C24A constructs were generated by site directed mutagenesis using the Quick Change mutagenesis kit. All mutations were confirmed by sequencing. […] Protein concentration was measured using the DC protein assay (BioRad). […]
HhatHAFlagHis was purified as follows. […] Protein concentrations were determined using the DC Protein Assay. The concentration of the final Flag eluate was determined from the absorbance at 280 nm using an extinction coefficient of 193045 cm^−1M^−1. […]

[3] = system: AsPC1 (human pancreatic adenocarcinoma) cells; assay: Human pancreatic adenocarcinoma cell assay; assay type: cell-based; settings: day six, FIG. 3
Procedure: Human pancreatic adenocarcinoma cell assay: 5000 AsPC1 (human pancreatic adenocarcinoma) cells were plated in each well of a 384-well black/clear-bottom tissue culture plate (Greiner Bio-One, Kremsmuenster, Austria), using Thermo Multi-Drop Combi dispenser. The plates were incubated at 37° C. for 24 h before compounds were dispensed using a Janus “Varispan” automated syringe pipette at 50 μM final concentration. High control (DMSO only) and low control (cell media only) rows were included in each plate. After 48 h incubation, Alamar Blue (Invitrogen) was added to each well in 1:100 ratio. 4 h later, cell viability was assessed by measuring fluorescence on a Perkin-Elmer EnVision plate reader.
Compound 13 was tested in the human pancreatic adenocarcinoma cell assay. The results are shown graphically in FIG. 3. At 10 μM it reduced the proliferation of human pancreatic cancer cells 50% at day six. At 20 μM it reduced the proliferation of human pancreatic cancer cells by 70% at day six.

| inhibition at 12.5 µM [1] | IC50 [2] | Compound | reduction of proliferation of human pancreatic cancer cells ([3]; 10 μM) | reduction of proliferation of human pancreatic cancer cells ([3]; 20 μM) |
| --- | --- | --- | --- | --- |
| 95.6% | – | C=CCNCC(=O)N1CCc2sccc2C1c1ccccc1 (centres unmarked) [Example 5] | – | – |
| – | 0.68 µM | CCC(C)CNCC(=O)N1CCc2sccc2C1c1cccc(C)n1 (centres unmarked) [Example 14] | – | – |
| – | 2.05 µM | CCC(C)CNCC(=O)N1CCc2sccc2C1c1cccc(C)c1 (centres unmarked) [Example 13] | 50% | 70% |
